Reference: patent US5723461A, “Quinoxalines, a process for their preparation and their use” (Hoechst Aktiengesellschaft, priority 1994, dated 1998)
≈ marks a conversion by molar mass, not a printed value.

Legend:
[1] = target: T1, HIV reverse transcriptase (Human immunodeficiency virus type 1 group M subtype B, UniProt P04585); experiment: Inhibition of HIV reverse transcriptase (scintillation proximity assay); type: biochemical; settings: Reverse transcriptase assay (SPA), 60 min, 37° C.
T1 construct: purchased HT Biotechnology Ltd., Cambridge, UK; host or cells: E. coli
Method: Examination of the substances for their ability to inhibit HIV reverse transcriptase
The activity of the reverse transcriptase (RT) was determined using a scintillation proximity assay (SPA).
The reagent kit for the RT SPA was obtained from Amersham/Buchler (Braunschweig). The RT enzyme (derived from HIV and cloned in E. coli) was obtained from HT Biotechnology Ltd., Cambridge, UK.
The test was carried out in accordance with the manufacturer's (Amersham) methods manual, with the following modifications:
Bovine serum albumin was added to the assay buffer to a final concentration of 0.5 mg/ml.
The test was carried out in Eppendorf tubes using an assay mixture volume of 100 μl.
The manufacturer's RT concentrate (5000 U/ml) was diluted to an activity of 15 U per ml using 20 mM tris-HCl buffer, pH 7.2, 30% glycerol.
The assay mixtures were incubated for 60 min (37° C.).
After the reaction had been stopped and "developed" with the bead suspension, 130 μl of assay mixture were transferred into 4.5 ml of 10 mM tris-HCl buffer, pH 7.4, 0.15M NaCl and the tritium activity was measured in a β-counter.
In order to carry out a preliminary test of their inhibitory activity, the substances were dissolved in DMSO (stock solution, c=1 mg/ml) and tested when diluted 10^-1, 10^-2, 10^-3 etc. in DMSO.
In order to determine IC50 values, the stock solutions of inhibitor were further diluted in 50 mM tris-HCl buffer, pH 8, and tested at suitable concentrations.
The concentration associated with 50% inhibition of the enzyme was ascertained from the plot of RT activity against log Cinh.

HIV = experiment: Testing of preparations against HIV in cell culture (T-cell culture assay); type: cell-based; settings: Human immunodeficiency virus 1, 72 h, HIV-infected lymphocytes, 3 days at 37° C., lowest concentration at which no giant cells occurred, read-out: MIC EC50
Method: Testing of preparations against HIV in cell culture
Description of the method:
Complete medium additionally contains 20% fetal calf serum and 40 IU/ml recombinant interleukin 2.
Lymphocytes, which have been isolated from fresh donor blood by means of Ficoll® gradient centrifugation, are cultured, for 36 hours at 37° C. and under 5% CO2, in complete medium which additionally contains […] phytohemagglutinin (Wellcome). After 10% DMSO has been added, the cells are frozen at a cell density of 5×10^6 and stored in liquid nitrogen. For the experiment, the cells are thawed, washed in the RPMI medium and cultured for 3 to 4 days in the complete medium.
The test preparations were dissolved in DMSO at a concentration of 16.7 mg/ml, and these solutions were diluted with complete medium to a concentration of 1 mg/ml. 0.4 ml of medium was initially introduced into 24-well multiwell plates. After 0.1 ml of the dissolved preparation had been added to the upper row of the plate, a geometric dilution series was produced by transferring 0.1 ml on each occasion. Preparation-free controls contained 0.4 ml of complete medium containing 0.5% DMSO.
Lymphocyte cultures having a cell count of 5×10^5 cells/ml were infected by adding a 1/50 volume of the supernatant from HIV-infected lymphocyte cultures. The titer of these culture supernatants was determined by end-point dilution to be 1-5×10^6 infectious units/ml. After having been incubated at 37° C. for 30 min, the infected lymphocytes were centrifuged off and taken up once again in the same volume of medium. 0.6 ml of this cell suspension was added to each of the wells in the test plate. The assay mixtures were incubated at 37° C. for 3 days.
The infected cell cultures were examined under the microscope for the presence of giant cells, which are indicative of active viral replication in the culture. The lowest preparation concentration at which no giant cells occurred was determined and taken to be the inhibitory concentration against HIV. As a control, the supernatants from the culture plates were assayed for the presence of HIV antigen using an HIV antigen test in accordance with the manufacturer's (Organon) instructions.

Compound	IC50 [1]	EC50 (HIV)
CC[C@H]1C(=S)Nc2ccc(OC)cc2N1C(=O)OC(C)C [Example 99]	35.7 nM	< 1 ng/mL
CCOC(=O)N1c2cc(F)ccc2NC(=O)[C@@H]1CC [Example 78]	300 nM	< 80 ng/mL
CC[C@H]1C(=S)Nc2ccc(F)cc2N1C(=O)OCC(C)C [Example 140j]	48.3 nM	10 ng/mL (≈ 0.0322 µM)
C=CCOC(=O)N1c2cc(Cl)ccc2NC(=O)[C@@H]1CC [Example 58]	33.9 to 339 nM	10 ng/mL (≈ 0.0339 µM)
CCC[C@H]1C(=O)Nc2ccc(OC)cc2N1C(=O)OC(C)C [Example 44]	–	< 80 ng/mL
CCC(C)OC(=O)N1c2cc(OC)ccc2NC(=O)[C@@H]1CSC (some centres unmarked) [Example 84g]	349 nM	–
CSC[C@H]1C(=S)Nc2ccccc2N1C(=O)OC(C)C [Example 90]	16.1 nM	< 8 ng/mL
CCCCOC(=O)N1c2cc(F)ccc2NC(=S)[C@@H]1CC [Example 140i]	70.9 nM	10 ng/mL (≈ 0.0322 µM)
C=C(C)OC(=O)N1c2cc(Cl)ccc2NC(=O)[C@@H]1CC [Example 57]	33.9 to 339 nM	1 ng/mL (≈ 0.00339 µM)
C=C(C)OC(=O)N1c2cc(OC)ccc2NC(=S)[C@@H]1CSC [Example 124]	–	< 8 ng/mL
COc1ccc2c(c1)N(C(=O)OCC(C)C)[C@@H](CSC)C(=S)N2 [Example 140g]	48 nM	40 ng/mL (≈ 0.113 µM)
CSC[C@H]1C(=S)Nc2ccc(Cl)cc2N1C(=O)OC(C)C [Example 94]	43.5 nM	< 8 ng/mL
CCC[C@H]1C(=S)Nc2ccc(F)cc2N1C(=O)OC(C)C [Example 96]	51.5 nM	80 ng/mL (≈ 0.258 µM)
CCC(C)OC(=O)N1c2cc(F)ccc2NC(=O)[C@@H]1CC (some centres unmarked) [Example 84j]	296 nM	< 80 ng/mL
CCOc1ccc2c(c1)N(C(=O)OC(C)C)[C@@H](CSC)C(=S)N2 [Example 108]	22.6 nM	< 5 ng/mL
CCCCOC(=O)N1c2cc(F)ccc2NC(=O)[C@@H]1CC [Example 84l]	510 nM	80 ng/mL (≈ 0.272 µM)
CC[C@H]1C(=S)Nc2ccc(O)cc2N1C(=O)OC(C)C [Example 140b]	238 nM	< 80 ng/mL
CC[C@H]1C(=O)Nc2ccc(Cl)cc2N1C(=O)OC(C)C [Example 35]	33.7 nM	< 80 ng/mL
CCC[C@H]1C(=O)Nc2ccc(F)cc2N1C(=O)OC(C)C [Example 40]	34 to 340 nM	80 ng/mL (≈ 0.272 µM)
C=CCOC(=O)N1c2cc(Cl)ccc2NC(=S)[C@@H]1C [Example 140c]	371 nM	40 ng/mL (≈ 0.135 µM)

Compound	IC50 [1]	EC50 (HIV)
C=C(C)OC(=O)N1c2cc(F)ccc2NC(=O)[C@@H]1CC [Example 62]	331 nM	80 ng/mL (≈ 0.287 µM)
CC[C@H]1C(=S)Nc2ccc(Cl)cc2N1C(=O)OC(C)C [Example 91]	12.8 nM	2 ng/mL (≈ 0.00639 µM)
CCOC(=O)N1c2cc(Cl)ccc2NC(=O)[C@@H]1CSC [Example 61]	31.8 to 318 nM	2 ng/mL (≈ 0.00635 µM)
COC[C@H]1C(=S)Nc2ccc(OC)cc2N1C(=O)OC(C)C [Example 104]	108 nM	8 ng/mL (≈ 0.0247 µM)
CSC[C@H]1C(=O)Nc2ccc(Cl)cc2N1C(=O)OC(C)C [Example 38]	15.2 nM	< 1 ng/mL
CSC[C@H]1C(=O)Nc2ccc(F)cc2N1C(=O)OC(C)C [Example 42]	–	< 8 ng/mL
CC[C@H]1C(=O)Nc2ccccc2N1C(=O)OC(C)C [Example 30]	–	< 40 ng/mL
CSC[C@H]1C(=O)Nc2ccccc2N1C(=O)OC(C)C [Example 34]	34 to 340 nM	< 1 ng/mL
C=C(C)OC(=O)N1c2cc(Cl)ccc2NC(=S)[C@@H]1CSC [Example 115]	29.2 nM	1.6 ng/mL (≈ 0.00467 µM)
CCC[C@H]1C(=S)Nc2ccc(OC)cc2N1C(=O)OC(C)C [Example 100]	49.6 nM	4 ng/mL (≈ 0.0124 µM)
CC[C@H]1C(=S)Nc2ccc(F)cc2N1C(=O)OC [Example 140h]	29.8 nM	10 ng/mL (≈ 0.0373 µM)
COc1ccc2c(c1)N(C(=O)OC(C)C)[C@@H](CSC)C(=S)N2 [Example 85, S-4-Isopropoxycarbonyl-6-methoxy-3-(methylthiomethyl)-3,4-dihydroquinoxalin-2(1H)-thione]	23.5 nM	2 ng/mL (≈ 0.00587 µM)
C=C(C)OC(=O)N1c2cc(Cl)ccc2NC(=O)[C@@H]1CSC [Example 59]	55.1 nM	20 ng/mL (≈ 0.0612 µM)
CCCOc1ccc2c(c1)N(C(=O)OC(C)C)[C@@H](CSC)C(=O)N2 [Example 54]	–	40 ng/mL (≈ 0.113 µM)
CSC[C@H]1C(=S)Nc2ccc(F)cc2N1C(=O)OC(C)C [Example 98]	36.5 nM	3 ng/mL (≈ 0.00913 µM)
CCC(C)COC(=O)N1c2cc(OC)ccc2NC(=S)[C@@H]1CSC (some centres unmarked) [Example 125]	40.7 nM	–
CC(C)OC(=O)N1c2cc(F)ccc2NC(=O)[C@@H]1C [Example 84i]	638 nM	80 ng/mL (≈ 0.3 µM)
C=C(C)OC(=O)N1c2cc(Cl)ccc2NC(=S)[C@@H]1CC [Example 113]	19.3 nM	0.8 ng/mL (≈ 0.00257 µM)
CCCOc1ccc2c(c1)N(C(=O)OC(C)C)[C@@H](CSC)C(=S)N2 [Example 110]	27.1 to 271 nM	4 ng/mL (≈ 0.0109 µM)
CCOC(=O)N1c2cc(F)ccc2NC(=S)[C@@H]1CC [Example 134]	10.6 nM	8 ng/mL (≈ 0.0283 µM)

Compound	IC50 [1]	EC50 (HIV)
CCC(C)OC(=O)N1c2cc(OC)ccc2NC(=S)[C@@H]1CSC (some centres unmarked) [Example 140f]	53.6 nM	8 ng/mL (≈ 0.0226 µM)
CC[C@H]1C(=S)Nc2ccccc2N1C(=O)OC(C)C [Example 86]	39.5 nM	1 ng/mL (≈ 0.00359 µM)
C=CCOC(=O)N1c2cc(Cl)ccc2NC(=S)[C@@H]1CC [Example 114]	22.5 nM	1.6 ng/mL (≈ 0.00515 µM)
C=C(C)OC(=O)N1c2cc(OC)ccc2NC(=O)[C@@H]1CSC [Example 68]	49.6 nM	8 ng/mL (≈ 0.0248 µM)
COC[C@H]1C(=O)Nc2ccc(F)cc2N1C(=O)OC(C)C [Example 84o]	–	80 ng/mL (≈ 0.27 µM)
CC[C@H]1C(=O)Nc2ccc(F)cc2N1C(=O)OC(C)C [Example 39]	71.4 nM	8 ng/mL (≈ 0.0285 µM)
CCC(C)OC(=O)N1c2cc(F)ccc2NC(=S)[C@@H]1CC (some centres unmarked) [Example 140k]	51.5 nM	8 ng/mL (≈ 0.0258 µM)
CC[C@H]1C(=O)Nc2ccc(OC)cc2N1C(=O)OC(C)C [Example 43]	–	< 1 ng/mL
CCC[C@H]1C(=O)Nc2ccccc2N1C(=O)OC(C)C [Example 31]	–	50 ng/mL (≈ 0.181 µM)
CCCC[C@H]1C(=S)Nc2ccccc2N1C(=O)OC(C)C [Example 88]	–	< 40 ng/mL
C=C(C)OC(=O)N1c2cc(Cl)ccc2NC(=S)[C@@H]1C [Example 140d]	91 nM	10 ng/mL (≈ 0.0337 µM)
CCCOC(=O)N1c2cc(Cl)ccc2NC(=O)[C@@H]1CSC [Example 60]	30.4 nM	40 ng/mL (≈ 0.122 µM)
CCC[C@H]1C(=S)Nc2ccccc2N1C(=O)OC(C)C [Example 87]	92.3 nM	4 ng/mL (≈ 0.0137 µM)
COc1ccc2c(c1)N(C(=O)OC(C)C)[C@@H](CSC)C(=O)N2 [Example 29, S-4-Isopropoxycarbonyl-6-methoxy-3-(methylthiomethyl)-3,4-dihydroquinoxalin-2(1H)-one]	30.8 to 308 nM	< 8 ng/mL
COC[C@H]1C(=S)Nc2ccc(F)cc2N1C(=O)OC(C)C [Example 140l]	70.4 nM	8 ng/mL (≈ 0.0256 µM)
CCOc1ccc2c(c1)N(C(=O)OC(C)C)[C@@H](CSC)C(=O)N2 [Example 52]	29.5 to 295 nM	< 8 ng/mL
CSC[C@H]1C(=S)Nc2ccc(O)cc2N1C(=O)OC(C)C [Example 140a]	285 nM	40 ng/mL (≈ 0.123 µM)
CC[C@H]1C(=S)Nc2ccc(F)cc2N1C(=O)OC(C)C [Example 95]	–	2 ng/mL (≈ 0.00675 µM)
